Reference: patent US11014917B2, “5-fluoro-c-(aryl or heterocyclyl)-glycoside derivatives useful as dual SGLT1 / SGLT2 modulators” (Janssen Pharmaceutica NV, priority 2017, dated 2021)
Blank lines part the entries; values can stand above or below the molecule they belong to.

Key:
[1] = target: T1, human SGLT1 (Homo sapiens, UniProt P13866); assay: SGLT1 assay: Na-dependent 14C-AMG uptake in CHO-K1 cells stably expressing human SGLT1; assay type: cell-based; conditions: for IC50: average if tested more than once
T1 construct: expressed in transfected cells
T1 sequence (P13866 1-664): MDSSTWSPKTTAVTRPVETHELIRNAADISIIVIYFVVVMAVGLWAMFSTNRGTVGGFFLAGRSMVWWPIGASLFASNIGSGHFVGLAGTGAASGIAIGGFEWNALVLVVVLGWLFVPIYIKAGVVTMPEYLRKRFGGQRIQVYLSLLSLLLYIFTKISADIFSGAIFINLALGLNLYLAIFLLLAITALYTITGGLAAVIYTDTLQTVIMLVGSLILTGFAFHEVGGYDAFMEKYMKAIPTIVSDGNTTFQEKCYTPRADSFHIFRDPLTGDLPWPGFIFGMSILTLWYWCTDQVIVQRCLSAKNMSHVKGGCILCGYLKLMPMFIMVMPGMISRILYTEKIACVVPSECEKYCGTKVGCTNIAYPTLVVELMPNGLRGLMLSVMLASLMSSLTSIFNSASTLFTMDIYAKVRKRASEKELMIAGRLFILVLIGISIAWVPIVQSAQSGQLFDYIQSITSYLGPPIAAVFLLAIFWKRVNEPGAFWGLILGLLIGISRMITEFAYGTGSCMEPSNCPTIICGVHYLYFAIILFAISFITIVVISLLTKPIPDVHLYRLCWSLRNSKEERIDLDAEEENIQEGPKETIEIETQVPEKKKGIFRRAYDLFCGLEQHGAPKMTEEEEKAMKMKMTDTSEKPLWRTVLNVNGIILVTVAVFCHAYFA
Outline: (§1)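 Stable CHO-K1 lines were pretreated 24 h with 10 mM Na-butyrate, then compound (0.001–10 μM) for 10 min in Na+ buffer (137 mM NaCl, pH 7.4). Uptake of 14C-AMG (500 μM final, 0.07 μCi/well) over 2 h at 37° C measured by scintillation; %-inhibition or IC50.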

[2] = target: T2, human SGLT2 (Homo sapiens, UniProt P31639); assay: SGLT2 assay: Na-dependent 14C-AMG uptake in CHO-K1 cells stably expressing human SGLT2; assay type: cell-based; conditions: for IC50: average if tested more than once
T2 construct: expressed in transfected cells
T2 sequence (P31639 1-672): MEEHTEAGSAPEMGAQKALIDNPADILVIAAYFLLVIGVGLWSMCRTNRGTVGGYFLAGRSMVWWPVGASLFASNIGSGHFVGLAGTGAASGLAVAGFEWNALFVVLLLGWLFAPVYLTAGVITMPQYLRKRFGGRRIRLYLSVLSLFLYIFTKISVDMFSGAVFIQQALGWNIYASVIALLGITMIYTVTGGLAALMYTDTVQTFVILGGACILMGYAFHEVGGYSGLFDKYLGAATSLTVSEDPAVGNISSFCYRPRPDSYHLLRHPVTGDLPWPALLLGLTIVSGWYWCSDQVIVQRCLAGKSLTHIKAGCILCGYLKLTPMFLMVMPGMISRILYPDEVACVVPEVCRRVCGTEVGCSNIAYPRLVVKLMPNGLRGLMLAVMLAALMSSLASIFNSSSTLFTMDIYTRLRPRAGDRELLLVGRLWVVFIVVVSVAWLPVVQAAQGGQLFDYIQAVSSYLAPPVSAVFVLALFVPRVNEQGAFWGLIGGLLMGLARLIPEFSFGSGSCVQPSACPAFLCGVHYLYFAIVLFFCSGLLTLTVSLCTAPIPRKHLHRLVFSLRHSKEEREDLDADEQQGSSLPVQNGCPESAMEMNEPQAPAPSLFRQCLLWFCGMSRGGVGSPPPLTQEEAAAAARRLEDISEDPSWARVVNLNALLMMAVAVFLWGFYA
Outline: as §1

IC50 [1]: 376 nM
IC50 [2]: 23 nM
Compound: COc1cc(C)c(Cc2cc3c(s2)CCN(C(=O)c2nccs2)C3)cc1[C@@H]1O[C@H](CO)[C@@H](F)[C@H](O)[C@H]1O [Compound 112, (2-(5-((2S,3R,4R,5S,6R)-5-fluoro-3,4-dihydroxy-6-(hydroxymethyl)-tetrahydro-2H-pyran-2-yl)-4-methoxy-2-methylbenzyl)-6,7-dihydrothieno[3,2-c]pyridin-5(4H)-yl)(thiazol-2-yl)methanone]

SGLT1 %-inhibition ([1]; @ 0.3 μM): 59.8% @ 0.3 μM
SGLT2 %-inhibition ([2]; @ 0.3 μM): 85.8% @ 0.3 μM
Compound: COc1c([C@@H]2O[C@H](CO)[C@@H](F)[C@H](O)[C@H]2O)cc(Cc2ccc(OCF)cc2)c2c1CCO2 [Compound 142]

SGLT1 %-inhibition ([1]; @ 0.3 μM): 45.3% @ 0.3 μM
SGLT2 %-inhibition ([2]; @ 0.3 μM): 62.7% @ 0.3 μM
Compound: CC1COc2c(Cc3ccc4c(c3)OCCO4)cc(C3OC(CO)C(F)C(O)C3O)cc21 (mixture of isomers) [Compound 95]

SGLT1 %-inhibition ([1]; @ 0.3 μM): 68.9% @ 0.3 μM
SGLT2 %-inhibition ([2]; @ 0.3 μM): 56.1% @ 0.3 μM
Compound: [2H]C([2H])(c1ccc2c(c1)OC([2H])([2H])C([2H])([2H])O2)c1cc([C@@H]2O[C@H](CO)[C@@H](F)[C@H](O)[C@H]2O)ccc1CC [Compound 176]

SGLT1 %-inhibition ([1]; @ 0.3 μM): 37.9% @ 0.3 μM
SGLT2 %-inhibition ([2]; @ 0.3 μM): 80.1% @ 0.3 μM
Compound: [2H]C([2H])(c1ccc2c(c1)OCCO2)c1cc([C@@H]2O[C@H](CO)[C@@H](F)[C@H](O)[C@H]2O)ccc1C [Compound 167]

IC50 [1]: 245 nM
IC50 [2]: 11 nM
Compound: [2H]C([2H])(c1ccc2c(c1)OCCO2)c1cc([C@@H]2O[C@H](CO)[C@@H](F)[C@H](O)[C@H]2O)ccc1Cl [Compound 166]

SGLT1 %-inhibition ([1]; @ 0.3 μM): 64.9% @ 0.3 μM
SGLT2 %-inhibition ([2]; @ 0.3 μM): 57.5% @ 0.3 μM
Compound: Cc1cc(O)c([C@@H]2O[C@H](CO)[C@@H](F)[C@H](O)[C@H]2O)cc1Cc1cc2c(s1)CCN(C(=O)N1CCOCC1)C2 [Compound 67]

inhibition at 0.3 µM ([1]; @ 0.3 μM): 21.7%
inhibition at 0.3 µM ([2]; @ 0.3 μM): 16.8%
Compound: COc1c(Cc2ccc3c(c2)CCCO3)cc([C@@H]2O[C@H](CO)[C@@H](F)[C@H](O)[C@H]2O)c2c1CCO2 [Compound 126, (2S,3R,4R,5S,6R)-2-(5-(chroman-6-ylmethyl)-4-methoxy-2,3-dihydrobenzofuran-7-yl)-5-fluoro-6-(hydroxymethyl)-tetrahydro-2H-pyran-3,4-diol]

IC50 [1]: 14 nM
IC50 [2]: 4 nM
Compound: Cc1cc(O)c([C@@H]2O[C@H](CO)[C@@H](F)[C@H](O)[C@H]2O)cc1Cc1cc2ccccc2s1 [Compound 4]

More lines, now with the values behind:

Compound: CCc1cc(OC)c([C@@H]2O[C@H](CO)[C@@H](F)[C@H](O)[C@H]2O)cc1Cc1cc2c(s1)CCN(C#N)C2 [Compound 115]
SGLT1 %-inhibition ([1]; @ 0.3 μM): 35.6% @ 0.3 μM
SGLT2 %-inhibition ([2]; @ 0.3 μM): 79.3% @ 0.3 μM

Compound: N#CN1CCc2sc(Cc3cc([C@@H]4O[C@H](CO)[C@@H](F)[C@H](O)[C@H]4O)ccc3Cl)cc2C1 [Compound 121]
SGLT1 %-inhibition ([1]; @ 0.3 μM): 20.5% @ 0.3 μM
SGLT2 %-inhibition ([2]; @ 0.3 μM): 79.8% @ 0.3 μM

Compound: Cc1cc(O)c([C@@H]2O[C@H](CO)[C@@H](F)[C@H](O)[C@H]2O)cc1Cc1cc2c(s1)CCCC2=O [Compound 119]
IC50 [1]: 156 nM
IC50 [2]: 11 nM

Compound: CC(=O)N1CCc2sc(Cc3cc([C@@H]4O[C@H](CO)[C@@H](F)[C@H](O)[C@H]4O)c(O)cc3Cl)cc2C1 [Compound 74]
SGLT1 %-inhibition ([1]; @ 0.3 μM): 65.5% @ 0.3 μM
SGLT2 %-inhibition ([2]; @ 0.3 μM): 65.2% @ 0.3 μM

Compound: Cc1ccc([C@@H]2O[C@H](CO)[C@@H](F)[C@H](O)[C@H]2O)cc1Cc1cc2c(s1)CCN(C(=O)C1CCCC1)C2 [Compound 87]
SGLT1 %-inhibition ([1]; @ 0.3 μM): 48.7% @ 0.3 μM
SGLT2 %-inhibition ([2]; @ 0.3 μM): 59.0% @ 0.3 μM

Compound: COc1c([C@@H]2O[C@H](CO)[C@@H](F)[C@H](O)[C@H]2O)cc(Cc2ccc3c(c2)OCCO3)c2c1CCO2 [Compound 65, (2S,3R,4R,5S,6R)-2-(7-((2,3-dihydrobenzo[b][1,4]dioxin-6-yl)methyl)-4-methoxy-2,3-dihydrobenzofuran-5-yl)-5-fluoro-6-(hydroxymethyl)tetrahydro-2H-pyran-3,4-diol]
IC50 [1]: 43 nM
IC50 [2]: 9 nM
